Among the data in the kinase profiling compilation of Christmann-Franck et al. (2016) are residual activity values, retold here.

CSF1R (human), sequence (P07333 whole entry, looked up): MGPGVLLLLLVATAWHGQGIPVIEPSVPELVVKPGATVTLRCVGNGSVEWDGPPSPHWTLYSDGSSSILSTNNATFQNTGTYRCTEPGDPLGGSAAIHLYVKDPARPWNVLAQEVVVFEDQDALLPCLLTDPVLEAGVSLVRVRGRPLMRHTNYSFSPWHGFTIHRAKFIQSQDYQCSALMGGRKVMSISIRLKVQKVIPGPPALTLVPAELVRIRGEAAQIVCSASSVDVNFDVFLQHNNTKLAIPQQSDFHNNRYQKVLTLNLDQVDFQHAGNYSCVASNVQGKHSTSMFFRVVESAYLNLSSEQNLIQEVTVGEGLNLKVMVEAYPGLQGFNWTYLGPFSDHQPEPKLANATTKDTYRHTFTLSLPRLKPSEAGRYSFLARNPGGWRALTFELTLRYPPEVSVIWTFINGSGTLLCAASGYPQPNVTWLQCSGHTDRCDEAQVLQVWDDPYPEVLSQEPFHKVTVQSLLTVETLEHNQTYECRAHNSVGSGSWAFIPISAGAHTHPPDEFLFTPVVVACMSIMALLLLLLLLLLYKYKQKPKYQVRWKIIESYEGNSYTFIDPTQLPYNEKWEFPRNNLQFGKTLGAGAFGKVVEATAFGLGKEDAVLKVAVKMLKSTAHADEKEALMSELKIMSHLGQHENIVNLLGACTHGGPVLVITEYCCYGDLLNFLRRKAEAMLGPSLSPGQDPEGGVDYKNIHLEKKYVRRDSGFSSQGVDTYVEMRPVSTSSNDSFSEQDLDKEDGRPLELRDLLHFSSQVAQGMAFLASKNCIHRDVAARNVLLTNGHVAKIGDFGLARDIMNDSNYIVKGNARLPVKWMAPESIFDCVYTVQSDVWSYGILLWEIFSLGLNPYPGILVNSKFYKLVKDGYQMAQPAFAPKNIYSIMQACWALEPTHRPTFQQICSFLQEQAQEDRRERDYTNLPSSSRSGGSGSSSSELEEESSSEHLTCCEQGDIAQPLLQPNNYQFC
SIK2 (human), sequence (Q9H0K1 whole entry, looked up): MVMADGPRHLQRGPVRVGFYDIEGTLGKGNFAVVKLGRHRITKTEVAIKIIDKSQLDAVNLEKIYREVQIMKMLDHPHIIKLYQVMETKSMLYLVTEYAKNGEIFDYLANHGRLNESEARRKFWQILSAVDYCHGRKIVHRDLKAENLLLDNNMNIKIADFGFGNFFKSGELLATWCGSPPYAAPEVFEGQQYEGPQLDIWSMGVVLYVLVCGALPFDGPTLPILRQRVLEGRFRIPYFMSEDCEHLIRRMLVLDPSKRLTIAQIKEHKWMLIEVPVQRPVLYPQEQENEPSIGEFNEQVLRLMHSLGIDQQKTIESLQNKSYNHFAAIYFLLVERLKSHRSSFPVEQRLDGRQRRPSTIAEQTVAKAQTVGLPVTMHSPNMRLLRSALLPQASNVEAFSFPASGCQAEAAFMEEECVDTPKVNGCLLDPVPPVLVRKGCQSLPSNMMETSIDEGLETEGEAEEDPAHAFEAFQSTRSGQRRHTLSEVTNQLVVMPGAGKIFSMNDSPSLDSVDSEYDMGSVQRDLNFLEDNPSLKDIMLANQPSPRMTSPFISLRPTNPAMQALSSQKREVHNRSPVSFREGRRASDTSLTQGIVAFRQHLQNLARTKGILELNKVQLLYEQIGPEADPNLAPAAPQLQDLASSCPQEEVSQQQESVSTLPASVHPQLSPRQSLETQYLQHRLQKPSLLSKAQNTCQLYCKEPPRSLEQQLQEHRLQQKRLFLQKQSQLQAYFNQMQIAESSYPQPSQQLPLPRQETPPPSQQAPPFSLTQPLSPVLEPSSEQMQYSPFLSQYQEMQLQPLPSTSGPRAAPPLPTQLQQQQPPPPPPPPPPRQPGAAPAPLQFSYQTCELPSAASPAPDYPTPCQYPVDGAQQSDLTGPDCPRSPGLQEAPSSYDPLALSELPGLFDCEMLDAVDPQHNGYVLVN
NEK7 (human), sequence (Q8TDX7 whole entry, looked up): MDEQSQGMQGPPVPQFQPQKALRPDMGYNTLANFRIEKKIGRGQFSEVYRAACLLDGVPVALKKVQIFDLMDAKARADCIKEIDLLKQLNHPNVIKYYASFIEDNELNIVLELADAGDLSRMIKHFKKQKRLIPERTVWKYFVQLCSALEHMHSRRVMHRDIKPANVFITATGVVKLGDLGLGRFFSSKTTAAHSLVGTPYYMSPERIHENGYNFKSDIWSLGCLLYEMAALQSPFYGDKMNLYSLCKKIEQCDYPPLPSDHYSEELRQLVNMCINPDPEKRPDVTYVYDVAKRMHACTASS

One assay has as its target SIK2 (human) (UniProt Q9H0K1). Description: radiometric filter-binding kinase assay, Kinase HotSpot. To be noted: compound 0.5 µM; ATP 10 µM.
For `N#C/C(=C(/N)Sc1ccc(N)cc1)c1ccccc1C(F)(F)F`, the residual activity came out at 101%.
Take `c1ccc(-c2n[nH]cc2-c2ccnc3ccccc23)nc1`: the residual activity stood at 94.8%.
Consider `Nc1ccc2ncnc(NCCc3ccc(Oc4ccccc4)cc3)c2c1`, for which the residual activity stood at 97.4%.

Another assay concerns the target CAMKK2 (human) (UniProt Q96RR4). Described as above. The settings on record: compound 0.5 µM; ATP 10 µM.
Take `N#C/C(=C(/N)Sc1ccc(N)cc1)c1ccccc1C(F)(F)F`: the residual activity came to 85.5%.
On to `c1ccc(-c2n[nH]cc2-c2ccnc3ccccc23)nc1`, for which the residual activity amounted to 97%.
Still for that read-out and setting: the value for `Nc1ccc2ncnc(NCCc3ccc(Oc4ccccc4)cc3)c2c1` was 92.6%.

A further assay has as its target MAP3K7 TAB1 (human) (UniProt O43318+Q15750). The assay is described as above. The settings on record: compound 0.5 µM; ATP 10 µM.
In the case of `N#C/C(=C(/N)Sc1ccc(N)cc1)c1ccccc1C(F)(F)F`, the residual activity amounted to 93.5%.
On the same count and under the same terms, the value for `c1ccc(-c2n[nH]cc2-c2ccnc3ccccc23)nc1` was 98.4%.
Same read-out and setting: the value for `Nc1ccc2ncnc(NCCc3ccc(Oc4ccccc4)cc3)c2c1` was 96.2%.

The target in another assay is PKN1 (human) (UniProt Q16512). The description is as above. To be noted: compound 0.5 µM; ATP 10 µM.
For `N#C/C(=C(/N)Sc1ccc(N)cc1)c1ccccc1C(F)(F)F`, the residual activity was determined as 104%.
`c1ccc(-c2n[nH]cc2-c2ccnc3ccccc23)nc1`: the residual activity came to 100%.
In the case of `Nc1ccc2ncnc(NCCc3ccc(Oc4ccccc4)cc3)c2c1`, the residual activity was 105%.

The next assay concerns the target EPHA5 (human) (UniProt P54756). The description is as above. To be noted: compound 0.5 µM; ATP 10 µM.
Turning to `N#C/C(=C(/N)Sc1ccc(N)cc1)c1ccccc1C(F)(F)F`, the residual activity was determined as 116%.
Same read-out and setting: the value for `c1ccc(-c2n[nH]cc2-c2ccnc3ccccc23)nc1` was 94.9%; that for `Nc1ccc2ncnc(NCCc3ccc(Oc4ccccc4)cc3)c2c1` was 102%.

The next assay has as its target PAK3 (human) (UniProt O75914). The assay is described as above. The settings on record: compound 0.5 µM; ATP 10 µM.
As to `N#C/C(=C(/N)Sc1ccc(N)cc1)c1ccccc1C(F)(F)F`, the residual activity amounted to 99.2%.
In the case of `c1ccc(-c2n[nH]cc2-c2ccnc3ccccc23)nc1`, the residual activity amounted to 99.7%.
In the case of `Nc1ccc2ncnc(NCCc3ccc(Oc4ccccc4)cc3)c2c1`, the residual activity was found to be 102%.

The target in the next assay is AURKA (human) (UniProt O14965). The description is as above. The settings on record: compound 0.5 µM; ATP 10 µM.
Take `N#C/C(=C(/N)Sc1ccc(N)cc1)c1ccccc1C(F)(F)F`: the residual activity stood at 103%.
Still for that read-out and setting: as for `c1ccc(-c2n[nH]cc2-c2ccnc3ccccc23)nc1`, the figure is 95.4%; as for `Nc1ccc2ncnc(NCCc3ccc(Oc4ccccc4)cc3)c2c1`, 105%.

A further assay concerns the target FYN (human) (UniProt P06241). The description is as above. To be noted: compound 0.5 µM; ATP 10 µM.
As to `N#C/C(=C(/N)Sc1ccc(N)cc1)c1ccccc1C(F)(F)F`, the residual activity is 97.1%.
Still for that read-out and setting: as for `c1ccc(-c2n[nH]cc2-c2ccnc3ccccc23)nc1`, the figure is 110%.
`Nc1ccc2ncnc(NCCc3ccc(Oc4ccccc4)cc3)c2c1`: the residual activity worked out at 103%.

The next assay addresses NEK7 (human) (UniProt Q8TDX7). Described as above. The settings on record: compound 0.5 µM; ATP 10 µM.
With `N#C/C(=C(/N)Sc1ccc(N)cc1)c1ccccc1C(F)(F)F`, the residual activity came to 93.9%.
Same read-out and setting: as for `c1ccc(-c2n[nH]cc2-c2ccnc3ccccc23)nc1`, the figure is 102%; as for `Nc1ccc2ncnc(NCCc3ccc(Oc4ccccc4)cc3)c2c1`, 96%.

For another assay, the target named is ADRBK1 (human) (UniProt P25098). The description is as above. The settings on record: compound 0.5 µM; ATP 10 µM.
ADRBK1 (human), sequence (P25098 whole entry, looked up): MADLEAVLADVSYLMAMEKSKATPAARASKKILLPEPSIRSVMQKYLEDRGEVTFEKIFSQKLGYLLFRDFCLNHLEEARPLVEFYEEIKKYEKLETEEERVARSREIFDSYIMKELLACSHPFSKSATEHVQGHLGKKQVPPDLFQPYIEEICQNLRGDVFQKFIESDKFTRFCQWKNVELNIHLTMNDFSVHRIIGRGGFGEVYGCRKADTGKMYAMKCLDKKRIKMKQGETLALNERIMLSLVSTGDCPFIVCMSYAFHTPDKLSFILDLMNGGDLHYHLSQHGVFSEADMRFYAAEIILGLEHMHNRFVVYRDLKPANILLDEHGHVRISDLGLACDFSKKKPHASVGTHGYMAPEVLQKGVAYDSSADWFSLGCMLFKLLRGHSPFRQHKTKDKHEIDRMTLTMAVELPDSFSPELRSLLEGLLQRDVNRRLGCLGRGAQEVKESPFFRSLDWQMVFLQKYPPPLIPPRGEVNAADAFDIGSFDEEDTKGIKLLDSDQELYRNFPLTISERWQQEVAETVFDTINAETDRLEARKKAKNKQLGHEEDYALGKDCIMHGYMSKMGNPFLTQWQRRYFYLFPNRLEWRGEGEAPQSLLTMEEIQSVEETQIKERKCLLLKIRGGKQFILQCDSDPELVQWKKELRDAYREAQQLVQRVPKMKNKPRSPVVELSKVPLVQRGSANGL
With `N#C/C(=C(/N)Sc1ccc(N)cc1)c1ccccc1C(F)(F)F`, the residual activity worked out at 114%.
Still for that read-out and setting: the value for `c1ccc(-c2n[nH]cc2-c2ccnc3ccccc23)nc1` was 101%; that for `Nc1ccc2ncnc(NCCc3ccc(Oc4ccccc4)cc3)c2c1` was 91.5%.

The target in another assay is GSG2 (human) (UniProt Q8TF76). The assay is described as above. To be noted: compound 0.5 µM; ATP 10 µM.
Consider `N#C/C(=C(/N)Sc1ccc(N)cc1)c1ccccc1C(F)(F)F`, for which the residual activity was determined as 99.9%.
Turning to `c1ccc(-c2n[nH]cc2-c2ccnc3ccccc23)nc1`, the residual activity amounted to 90.8%.
On the same count and under the same terms, the value for `Nc1ccc2ncnc(NCCc3ccc(Oc4ccccc4)cc3)c2c1` was 96.9%.

For a further assay, the target named is MUSK (human) (UniProt O15146). The description is as above. The settings on record: compound 0.5 µM; ATP 10 µM.
For `N#C/C(=C(/N)Sc1ccc(N)cc1)c1ccccc1C(F)(F)F`, the residual activity stood at 91.9%.
On the same count and under the same terms, the value for `c1ccc(-c2n[nH]cc2-c2ccnc3ccccc23)nc1` was 93.4%.
Same read-out and setting: as for `Nc1ccc2ncnc(NCCc3ccc(Oc4ccccc4)cc3)c2c1`, the figure is 102%.

For the next assay, the target named is LIMK1 (human) (UniProt P53667). The assay is described as above. To be noted: compound 0.5 µM; ATP 10 µM.
With `N#C/C(=C(/N)Sc1ccc(N)cc1)c1ccccc1C(F)(F)F`, the residual activity was 98.7%.
On the same count and under the same terms, the value for `c1ccc(-c2n[nH]cc2-c2ccnc3ccccc23)nc1` was 103%; that for `Nc1ccc2ncnc(NCCc3ccc(Oc4ccccc4)cc3)c2c1` was 101%.

In another assay the target is STK3 (human) (UniProt Q13188). The assay is described as above. The settings on record: compound 0.5 µM; ATP 10 µM.
As for `N#C/C(=C(/N)Sc1ccc(N)cc1)c1ccccc1C(F)(F)F`, the residual activity came out at 125%.
Still for that read-out and setting: as for `c1ccc(-c2n[nH]cc2-c2ccnc3ccccc23)nc1`, the figure is 102%; as for `Nc1ccc2ncnc(NCCc3ccc(Oc4ccccc4)cc3)c2c1`, 105%.

For another assay, the target named is EPHA3 (human) (UniProt P29320). The assay is described as above. To be noted: compound 0.5 µM; ATP 10 µM.
EPHA3 (human), sequence (P29320 whole entry, looked up): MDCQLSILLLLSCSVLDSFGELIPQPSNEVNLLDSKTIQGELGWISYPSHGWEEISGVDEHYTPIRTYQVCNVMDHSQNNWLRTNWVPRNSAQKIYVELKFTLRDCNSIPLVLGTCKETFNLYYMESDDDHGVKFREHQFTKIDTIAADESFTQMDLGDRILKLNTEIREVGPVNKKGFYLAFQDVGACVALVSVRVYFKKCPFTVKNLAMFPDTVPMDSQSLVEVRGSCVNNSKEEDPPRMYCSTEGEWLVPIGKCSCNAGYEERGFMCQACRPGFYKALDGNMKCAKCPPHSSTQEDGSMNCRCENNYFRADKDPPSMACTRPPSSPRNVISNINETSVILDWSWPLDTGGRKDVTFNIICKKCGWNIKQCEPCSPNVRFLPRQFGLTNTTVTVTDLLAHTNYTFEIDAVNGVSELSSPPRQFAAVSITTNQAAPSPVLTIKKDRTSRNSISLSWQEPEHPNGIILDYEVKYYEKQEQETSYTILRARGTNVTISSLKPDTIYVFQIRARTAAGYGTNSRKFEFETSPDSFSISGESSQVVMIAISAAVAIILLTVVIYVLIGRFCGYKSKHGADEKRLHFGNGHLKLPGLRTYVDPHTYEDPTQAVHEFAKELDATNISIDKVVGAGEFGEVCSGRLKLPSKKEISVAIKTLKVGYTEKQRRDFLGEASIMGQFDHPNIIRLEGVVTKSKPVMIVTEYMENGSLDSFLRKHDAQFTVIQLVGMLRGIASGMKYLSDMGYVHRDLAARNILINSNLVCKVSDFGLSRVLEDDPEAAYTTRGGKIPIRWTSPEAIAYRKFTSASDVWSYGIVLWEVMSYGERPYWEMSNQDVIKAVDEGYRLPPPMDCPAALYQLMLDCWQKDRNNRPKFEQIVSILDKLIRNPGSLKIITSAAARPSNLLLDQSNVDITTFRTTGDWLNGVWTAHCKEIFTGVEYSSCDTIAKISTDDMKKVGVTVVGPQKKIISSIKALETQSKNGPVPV
On to `N#C/C(=C(/N)Sc1ccc(N)cc1)c1ccccc1C(F)(F)F`, for which the residual activity was 105%.
For the compound `c1ccc(-c2n[nH]cc2-c2ccnc3ccccc23)nc1`, the residual activity came to 99.3%.
Same read-out and setting: the value for `Nc1ccc2ncnc(NCCc3ccc(Oc4ccccc4)cc3)c2c1` was 102%.

A further assay concerns the target STK39 (human) (UniProt Q9UEW8). Described as above. To be noted: compound 0.5 µM; ATP 10 µM.
In the case of `N#C/C(=C(/N)Sc1ccc(N)cc1)c1ccccc1C(F)(F)F`, the residual activity was 94.6%.
For `c1ccc(-c2n[nH]cc2-c2ccnc3ccccc23)nc1`, the residual activity was 88.7%.
Same read-out and setting: the value for `Nc1ccc2ncnc(NCCc3ccc(Oc4ccccc4)cc3)c2c1` was 83.9%.

Another assay concerns the target ULK3 (human) (UniProt Q6PHR2). Described as above. The settings on record: compound 0.5 µM; ATP 10 µM.
Take `N#C/C(=C(/N)Sc1ccc(N)cc1)c1ccccc1C(F)(F)F`: the residual activity came to 106%.
Still for that read-out and setting: the value for `c1ccc(-c2n[nH]cc2-c2ccnc3ccccc23)nc1` was 85.3%; that for `Nc1ccc2ncnc(NCCc3ccc(Oc4ccccc4)cc3)c2c1` was 112%.

The next assay has as its target CSF1R (human) (UniProt P07333). Described as above. To be noted: compound 0.5 µM; ATP 10 µM.
On to `N#C/C(=C(/N)Sc1ccc(N)cc1)c1ccccc1C(F)(F)F`, for which the residual activity was 101%.
On the same count and under the same terms, the value for `c1ccc(-c2n[nH]cc2-c2ccnc3ccccc23)nc1` was 95.5%.
For `Nc1ccc2ncnc(NCCc3ccc(Oc4ccccc4)cc3)c2c1`, the residual activity was 106%.

The target in another assay is FLT3 (human) (UniProt P36888). Described as above. To be noted: compound 0.5 µM; ATP 10 µM.
FLT3 (human), sequence (P36888 whole entry, looked up): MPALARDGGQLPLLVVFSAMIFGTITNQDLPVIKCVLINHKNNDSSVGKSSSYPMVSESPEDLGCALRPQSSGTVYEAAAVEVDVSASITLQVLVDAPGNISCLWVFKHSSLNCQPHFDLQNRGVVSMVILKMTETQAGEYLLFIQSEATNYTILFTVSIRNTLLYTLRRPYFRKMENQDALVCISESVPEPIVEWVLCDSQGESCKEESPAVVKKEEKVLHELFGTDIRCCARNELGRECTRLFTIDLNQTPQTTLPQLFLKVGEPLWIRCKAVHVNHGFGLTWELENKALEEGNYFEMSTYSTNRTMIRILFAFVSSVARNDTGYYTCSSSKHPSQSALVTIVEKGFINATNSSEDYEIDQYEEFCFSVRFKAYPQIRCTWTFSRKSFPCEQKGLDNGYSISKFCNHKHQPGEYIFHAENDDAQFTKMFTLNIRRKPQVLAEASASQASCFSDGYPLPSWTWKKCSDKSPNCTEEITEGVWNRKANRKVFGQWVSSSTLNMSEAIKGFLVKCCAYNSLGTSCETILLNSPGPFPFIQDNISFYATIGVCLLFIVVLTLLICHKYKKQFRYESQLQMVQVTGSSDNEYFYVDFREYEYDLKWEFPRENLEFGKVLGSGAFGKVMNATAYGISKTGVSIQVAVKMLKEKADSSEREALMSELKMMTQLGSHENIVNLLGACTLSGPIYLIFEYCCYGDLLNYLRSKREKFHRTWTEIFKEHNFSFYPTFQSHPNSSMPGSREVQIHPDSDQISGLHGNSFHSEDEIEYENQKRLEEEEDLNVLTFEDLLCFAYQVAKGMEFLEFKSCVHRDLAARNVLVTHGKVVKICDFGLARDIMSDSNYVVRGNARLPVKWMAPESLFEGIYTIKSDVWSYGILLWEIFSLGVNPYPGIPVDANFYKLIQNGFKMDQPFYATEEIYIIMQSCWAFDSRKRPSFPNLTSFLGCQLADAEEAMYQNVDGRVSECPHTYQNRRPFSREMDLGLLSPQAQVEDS
`N#C/C(=C(/N)Sc1ccc(N)cc1)c1ccccc1C(F)(F)F`: the residual activity came out at 107%.
Still for that read-out and setting: the value for `c1ccc(-c2n[nH]cc2-c2ccnc3ccccc23)nc1` was 91.2%; that for `Nc1ccc2ncnc(NCCc3ccc(Oc4ccccc4)cc3)c2c1` was 103%.

A further assay deals with RPS6KA4 KD2 (human) (UniProt O75676). The description is as above. To be noted: compound 0.5 µM; ATP 10 µM.
Regarding `N#C/C(=C(/N)Sc1ccc(N)cc1)c1ccccc1C(F)(F)F`, the residual activity was found to be 112%.
Same read-out and setting: the value for `c1ccc(-c2n[nH]cc2-c2ccnc3ccccc23)nc1` was 87.2%.
Still for that read-out and setting: as for `Nc1ccc2ncnc(NCCc3ccc(Oc4ccccc4)cc3)c2c1`, the figure is 107%.

Another assay addresses GSK3B (human) (UniProt P49841). The description is as above. To be noted: compound 0.5 µM; ATP 10 µM.
In the case of `N#C/C(=C(/N)Sc1ccc(N)cc1)c1ccccc1C(F)(F)F`, the residual activity was 102%.
The same measure, in the same setting: the value for `c1ccc(-c2n[nH]cc2-c2ccnc3ccccc23)nc1` was 95.2%; that for `Nc1ccc2ncnc(NCCc3ccc(Oc4ccccc4)cc3)c2c1` was 102%.

By residual activity is commonly meant the signal under treatment as a percentage of the control signal.
